Experiments:
BRD4 BD1 = target: T1, BRD4 BD1 (Homo sapiens, UniProt O60885, Y390A); test: BRD4 BD1 TR-FRET competition assay; type: binding; settings: mean, n given; read-out: pIC50 in the BRD4 BD1 TR-FRET assay (converted)
T1 construct: BRD4 (1-477) (Y97A) and (Y390A); made in house; host or cells: E. coli (pET15b vector)
Method: Bromodomain binding was assessed utilising a time resolved fluorescent resonance energy transfer (TR-FRET) competition assay. To enable this approach a known, high affinity, pan-BET interacting small molecule was labelled with Alexa Fluor® 647, which is a far-red-fluorescent dye (Reference Compound X). Reference Compound X acts as a reporter of bromodomain binding and is the acceptor fluorophore component of the TR-FRET pair. Europium chelate, conjugated to an anti-6*His antibody, was utilised as the donor fluorophore in the TR-FRET pair. […]
The competition of the compounds of formula (I) with Reference Compound X for binding to the BET family (BRD2, BRD3, BRD4 and BRDT) was assessed using protein truncates spanning both bromodomain 1 (BD1) and bromodomain 2 (BD2). […] Utilising a Fluorescence Polarisation approach, binding affinities for each of the single and double mutants for Reference Compound X were determined. […]
All assay components were dissolved in an assay buffer composing of 50 mM HEPES pH7.4, 50 mM NaCl, 5% Glycerol, 1 mM DTT and 1 mM CHAPS. […] TR-FRET was detected using a Perkin Elmer Multimode plate reader, by exciting the donor fluorophore at λ337 nm and subsequently, after a delay of 50 μsecs, measuring emission of the donor and acceptor fluorophores at λ615 nm and λ665 nm, respectively. […]

BRD4 BD2 = target: T2, BRD4 BD2 (Homo sapiens, UniProt O60885, Y97A); test: BRD4 BD2 TR-FRET competition assay; type: binding
T2 construct: BRD4 (1-477) (Y97A) and (Y390A); made in house; host or cells: E. coli (pET15b vector)
Method: Bromodomain binding was assessed utilising a time resolved fluorescent resonance energy transfer (TR-FRET) competition assay. […] Europium chelate, conjugated to an anti-6*His antibody, was utilised as the donor fluorophore in the TR-FRET pair.
In order to generate a TR-FRET signal, donor fluorophore is excited by a laser at λ337 nm, which subsequently leads to emission at λ618 nm.
In order to monitor differential binding to either BD1 or BD2, single residue mutations of key tyrosines to alanine were made in the acetyl lysine binding pockets. To validate this approach, a double residue mutant tandem domain protein was produced for each of the BET family members.
Final purification was completed by Superdex 200 prep grade size exclusion column. Purified protein was stored at −80° C. in 20 mM HEPES pH 7.5 and 100 mM NaCl.
All assay components were dissolved in an assay buffer composing of 50 mM HEPES pH7.4, 50 mM NaCl, 5% Glycerol, 1 mM DTT and 1 mM CHAPS. […] An equal volume of 3 nM of anti-6*His Europium chelate was added to all wells, followed by a further 30 minute incubation at room temperature. TR-FRET was detected using a Perkin Elmer Multimode plate reader, by exciting the donor fluorophore at λ337 nm and subsequently, after a delay of 50 μsecs, measuring emission of the donor and acceptor fluorophores at λ615 nm and λ665 nm, respectively.
cA four parameter curve fit of the following form was then applied: y=a+((b−a)/(1+(10^x/10^c)^d) • Where ‘a’ is the minimum, ‘b’ is the Hill slope, ‘c’ is the pIC50 and ‘d’ is the maximum.

[1] = test system: double residue mutant tandem domain protein of each of the BET family members; test: Fluorescence Polarisation binding affinity, double mutants; parameters: species or system Human
Method: (§1) The competition of the compounds of formula (I) with Reference Compound X for binding to the BET family (BRD2, BRD3, BRD4 and BRDT) was assessed using protein truncates spanning both bromodomain 1 (BD1) and bromodomain 2 (BD2). In order to monitor differential binding to either BD1 or BD2, single residue mutations of key tyrosines to alanine were made in the acetyl lysine binding pockets. To validate this approach, a double residue mutant tandem domain protein was produced for each of the BET family members. Utilising a Fluorescence Polarisation approach, binding affinities for each of the single and double mutants for Reference Compound X were determined. […] The affinities of the single mutated bromdomain tandem proteins for Reference Compound X were equi-potent with the corresponding non-mutated BET protein. […] In the TR-FRET competition assay, Reference Compound X is used at a concentration that is equivalent to the Kd for the non-mutated bromodomain, which ensures that no binding at the mutated bromodomain is detected. […]

[2] = test system: single mutated bromodomain tandem proteins (BET family); test: Fluorescence Polarisation binding affinity, single mutants; parameters: species or system Human
Method: as §1

Row | IC50 (BRD4 BD1) [µM] | Selectivity for BRD4 BD2 over BRD4 BD1 (BRD4 BD2 pIC50 - BRD4 BD1 pIC50) (BRD4 BD2; in at least one of the TR-FRET assays) [log unit] | fold selective for BRD4 BD2 over BRD4 BD1 (BRD4 BD2; inferred from the log unit selectivity) | IC50 (BRD4 BD2; mean where stated, n given, read-out: pIC50 in the BRD4 BD2 TR-FRET assay (converted)) [µM] | SMILES | reduction in Kd (affinity) versus non mutated, wild type tandem BET proteins [1] [fold] | affinity versus corresponding non-mutated BET protein [2]
1 | 25.1 | 3.2 | at least 1000 fold | 0.0158 | CNC(=O)c1cc(C(=O)NCCCC2CNCCO2)cc2c1O[C@H](C)[C@H]2c1ccccc1 (stereo partly drawn) [Example 54, (2R,3S)—N^7,2-Dimethyl-N^5-(3-(morpholin-2-yl)propyl)-3-phenyl-2,3-dihydrobenzofuran-5,7-dicarboxamide] |  | 
2 |  |  |  |  | COc1ccc2c(c1)C(c1ccc(Cl)cc1)=N[C@@H](CC(=O)NCCCCCNC(=O)CCCCCC1(C)/C(=C/C=C/C=C/C3=[N+](CCCCS(=O)(=O)O)c4ccc(S(=O)(=O)O)cc4C3(C)C)N(CCCCS(=O)(=O)[O-])c3ccc(S(=O)(=O)O)cc31)c1nnc(C)n1-2 (stereo partly drawn) [Reference Compound X] | > 1000 | equi-potent

— patent US10583112B2, “Benzo[b]furans as bromodomain inhibitors” (GlaxoSmithKline Intellectual Property (No. 2) Limited, priority 2016, dated 2020)
